Data set [1] relates to MC3T3-E1. In words: Induction of osteoblast differentiation in […] MC3T3-E1 cells assessed as increase in osteocalcin mRNA expression at 5 uM after 4 days by RT-PCR method. The format is functional, cell-based.
The test system of data set [2] is C3H 10T1/2. In words: Cytotoxicity against mouse C3H10T1/2 cells assessed as reduction in cell viability up to 5 uM after 48 hrs by MTT assay. In kind it is cell-based. The conditions noted are these: c3h 10t1/2, 48 h.
For data set [3], the system named is MC3T3-E1. Briefly: Induction of osteoblast differentiation in […] MC3T3-E1 cells assessed as increase in ALP mRNA expression at 5 uM after 4 days by RT-PCR method. In kind it is functional, cell-based.
For data set [4], the system named is C3H 10T1/2. Briefly: Induction of osteoblast differentiation in mouse C3H10T1/2 cells assessed as increase in Dlx5 mRNA expression at 5 uM after 4 days by RT-PCR method. The format is functional, cell-based.
Data set [5] has as its system MC3T3-E1. In words: Induction of osteoblast differentiation in […] MC3T3-E1 cells assessed as increase in Dlx5 mRNA expression at 5 uM after 4 days by RT-PCR method. The format is functional, cell-based.
Data set [6] deals with C3H 10T1/2. In words: Induction of osteoblast differentiation in mouse C3H10T1/2 cells assessed as increase in ALP mRNA expression at 5 uM after 4 days by RT-PCR method. In kind it is functional, cell-based.
Data set [7] has as its system MC3T3-E1. In words: Induction of osteoblast differentiation in […] MC3T3-E1 cells assessed as increase in ALP activity at 5 uM after 4 days using BCIP/NBT liquid substrate. The format is functional, cell-based.
Data set [8] has as its system MC3T3-E1. Briefly: Induction of mineralization in […] MC3T3-E1 cells at 5 uM after 14 days by alizarin red S staining based assay. The format is functional, cell-based.
Data set [9] can be described thus: Solubility of the compound in DMSO. In kind it is physicochemical.
The subject of data set [10] is C3H 10T1/2. In words: Induction of osteoblast differentiation in mouse C3H10T1/2 cells assessed as increase in Runx2 mRNA expression at 5 uM after 4 days by RT-PCR method. In kind it is functional, cell-based.
For data set [11], the system named is MC3T3-E1. In words: Induction of osteoblast differentiation in […] MC3T3-E1 cells assessed as increase in Runx2 mRNA expression at 5 uM after 4 days by RT-PCR method. The format is functional, cell-based.
Data set [12] relates to C3H 10T1/2. In words: Induction of osteoblast differentiation in mouse C3H10T1/2 cells assessed as increase in osteocalcin mRNA expression at 5 uM after 4 days by RT-PCR method. The format is functional, cell-based.

The source made the active and inactive calls. The calls are words filed in the database; no cut-off is given here.

As for `COc1cc(O)cc([C@@H]2CC(=O)O[C@H]2C)c1` [CURCULACTONE B], the outcome with MC3T3-E1 [1], with MC3T3-E1 [3], in the data set on C3H 10T1/2 [4], in the data set with MC3T3-E1 [5], with C3H 10T1/2 [6] and in the data set on MC3T3-E1 [7] was Active. Moreover, the result in the data set with MC3T3-E1 [8], in the data set on C3H 10T1/2 [10], in the data set with MC3T3-E1 [11] and with C3H 10T1/2 [12] was Active. Also, the Activity result with C3H 10T1/2 [2] was “Non-Toxic”. Further, in [9], the solubility entry is on record as “Soluble”.
In the case of `COc1cc([C@H]2CC(=O)O[C@H]2C)ccc1O` [CURCULACTONE A], the result with MC3T3-E1 [1], in the data set with MC3T3-E1 [3], in the data set with C3H 10T1/2 [4], with MC3T3-E1 [5], in the data set with C3H 10T1/2 [6] and with MC3T3-E1 [7] was Active. Moreover, the result with MC3T3-E1 [8], in the data set with C3H 10T1/2 [10], with MC3T3-E1 [11] and with C3H 10T1/2 [12] was Active. In addition, the Activity result with C3H 10T1/2 [2] is given as “Non-Toxic”. For the same molecule, the solubility entry in data set [9] was “Soluble”.

Values taken from ChEMBL document CHEMBL3994621, “Curculactones A and B induced the differentiation of C3H10T1/2 and MC3T3-E1 cells to osteoblasts” (Bioorg Med Chem Lett, 2017).
